Where two headings read alike, the source gives them in different places.
Legend:
[1] = target: SARS-CoV-2 3CL protease (Severe acute respiratory syndrome coronavirus 2, UniProt P0DTD1); assay: biochemical; conditions: 50% SARS-CoV-2 3CL protease inhibitory concentration, read-out: IC50
[2] = tested on: SARS-CoV-2; assay: microbe, parasite or virus in culture; type: cell-based; conditions: Severe acute respiratory syndrome coronavirus 2, VeroE6/TMPRSS2, 72 h, 50% SARS-CoV-2 infected cell death inhibitory concentration, VeroE6/TMPRSS2 cells, 3 days culture

Structure (SMILES)	IC50 ([1]; RapidFire MS) [nM]	EC50 ([2]; CellTiter-Glo 2.0) [nM]	IC50 ([1]; given as class symbols) [nM]	EC50 ([2]; class symbols) [nM]
CC(C)(Nc1nc(=O)n(Cc2ccc[nH]c2=O)c(=O)n1Cc1cc(F)c(F)c(F)c1)c1ccccc1F [II-0482]	410	44500	–	–
Cn1cc2cc(Nc3nc(=O)n(-c4cncc(Cl)c4)c(=O)n3Cc3ccc(F)c(C#N)c3)c(Cl)cc2n1 [II-0120]	9	127	–	–
COc1ccc(Nc2nc(=O)n(Cc3ccc[nH]c3=O)c(=O)n2Cc2cc(F)cc(Cl)c2)cc1 [Compound I-0316]	–	–	< 100	1000 to 10000
CCc1cc(OC)ccc1Nc1nc(=O)n(Cc2ccc[nH]c2=O)c(=O)n1Cc1cc(F)c(F)c(F)c1 [Compound I-0165]	–	–	< 100	1000 to 10000
Cc1cncc(-n2c(=O)nc(Nc3cc4cn(C)nc4cc3Cl)n(Cc3cc(Cl)cc(Cl)c3)c2=O)c1 [II-0205]	–	–	< 100	1000 to 10000
Cc1cncc(-n2c(=O)nc(Nc3ccc4nn(C)cc4c3)n(Cc3cc(C#N)c(F)cc3C)c2=O)c1 [II-0290]	3.5	210	–	–
O=c1[nH]cccc1Cn1c(=O)nc(Nc2cc3cn(C(F)F)nc3cc2Cl)n(Cc2cc(F)c(F)c(F)c2)c1=O [Compound I-0357]	–	–	< 100	1000 to 10000
COc1ccc(Nc2nc(=O)n(Cc3ccc[nH]c3=O)c(=O)n2Cc2cc(F)c(F)c(F)c2F)cc1 [Compound I-0256]	–	–	< 100	1000 to 10000
Cc1cc(F)cc(Cn2c(Nc3cc4cn(C)nc4cc3Cl)nc(=O)n(-c3cncc(C)c3)c2=O)c1 [II-0212]	–	–	< 100	< 1000
Cc1cncc(-n2c(=O)nc(Nc3cc4cn(C)nc4cc3Cl)n(Cc3cc(Cl)c(F)cc3F)c2=O)c1 [II-0377]	3	49	–	–
CNc1cncc(-n2c(=O)nc(Nc3cc4cn(C)nc4cc3Cl)n(Cc3cc(C#N)c(F)cc3Cl)c2=O)c1 [II-0598]	–	–	< 100	< 1000
Cn1cc2cc(Nc3nc(=O)n(-c4cncc(Cl)c4)c(=O)n3Cc3ccc(F)c(C#N)c3)ccc2n1 [II-0608]	19	487	–	–
CC(=O)Nc1nc2cc(Cl)c(Nc3nc(=O)n(Cc4ncn(C)n4)c(=O)n3Cc3cc(Cl)c(F)cc3F)cc2s1 [II-0554]	–	–	< 100	1000 to 10000
Cn1cc2cc(Nc3nc(=O)n(-c4cncc(Cl)c4)c(=O)n3Cc3cc(C#N)ccc3Cl)ccc2n1 [II-0523]	11	240	–	–
Cn1cnc(Cn2c(=O)nc(Nc3cc4cn(C)nc4cc3Cl)n(Cc3cc(Cl)c(F)c(Cl)c3)c2=O)n1 [II-0584]	4.8	750	–	–
Cc1cncc(-n2c(=O)nc(Nc3cc4cn(C)nc4cc3Cl)n(Cc3cc(F)c(F)cc3Cl)c2=O)c1 [II-0402]	–	–	< 100	< 1000
C[C@H](O)Cn1cc2cc(Nc3nc(=O)n(Cc4ccc[nH]c4=O)c(=O)n3Cc3cc(F)c(F)c(F)c3)c(Cl)cc2n1 [Compound I-0424]	–	–	< 100	1000 to 10000
Cc1cncc(-n2c(=O)nc(Nc3cc4cn(C)nc4cc3Cl)n(Cc3cc(C#N)c(F)cc3C)c2=O)c1 [II-0015]	1.5	35	–	–
Cn1cnc(Cn2c(=O)nc(Nc3cc4cn(CC(=O)OC(C)(C)C)nc4cc3Cl)n(Cc3cc(Cl)c(F)cc3F)c2=O)n1 [II-0309]	–	–	< 100	1000 to 10000
O=c1[nH]cc(Cl)cc1Cn1c(=O)nc(Nc2cc3c(cc2Cl)OCC3)n(Cc2cc(F)c(F)c(F)c2)c1=O [Compound I-0391]	7.6	460	–	–
Cc1cncc(-n2c(=O)nc(Nc3cc4ccnn4cc3Cl)n(Cc3ccc(F)c(C#N)c3)c2=O)c1 [II-0477]	–	–	< 100	1000 to 10000

— US12559474B2, “Triazine derivatives having virus replication inhibitory activity and pharmaceutical composition comprising the same” (priority 2021, dated 2026)
